Experimental data as given in patent US20190381500A1, “CELL CONTAINED CONTAINER AND CELL CONTAINED CONTAINER PRODUCING METHOD, AND CELL CHIP” (priority 2018, published 2019).

Legend:
[1] = system: nerve cells C and nerve cells D (differentiated from human induced iPS cells); experiment: Drug efficacy screening (Hoechst 33342 / PI / Calcein AM staining, fluorescence microscope cell counting) in cell contained container 2; type: cell-based; settings: for Living cells / Dead cells: next day after addition
Protocol: The amount of the drug solution used was from 50 μL through 5,000 μL.
On the next day after the drug solution was added, the culture medium in each concave of the cell contained container was removed, and the concaves were washed with Hank's balanced salt solution (HBSS, available from Thermo Fisher Scientific Inc.) (200 microliters) at room temperature. After washing, HOECHST 33342 (available from Thermo Fisher Scientific Inc.), PI (Propidium Iodide, available from Cosmo Bio Co., Ltd.), and CALSEIN AM (available from Takara Bio Inc.) were each diluted 1,000-fold with HBSS, to prepare a stain mixture liquid, and the prepared stain mixture liquid was added in an amount of 200 microliters each. The cell contained container was then left to stand still in a 5% CO2 incubator for 20 minutes.
A fluorescence microscope image of the cell stained container after staining was completed was captured with a fluorescence microscope. The obtained fluorescence microscope image was processed with image processing software IMAGE J, to calculate the number of cells and the number of dead cells.

[2] = system: nerve cells C and nerve cells D; type: cell-based, human; settings: 100, 160, 220 micromoles; 20 hours; FIG. 24
Protocol: In the same manner as in the evaluation of the cell survival rate, the N9 culture medium to which zinc chloride was added as described above was added, and the container was left to stand still overnight (for 20 hours) in a CO2 incubator at 37 degrees C.
In order to evaluate the influence of zinc chloride on cell membrane damage, only the culture medium was recovered with a micropipette and put in a 96-well cell contained container, a LDH assay reagent (product name: CYTOTOXICITY DETECTION KIT, available from Roche) was further added to each, and the resultant was allowed to undergo reaction at room temperature (23 degrees C.) for 5 minutes. Subsequently, absorbances at 492 nm, and as a reference value, at 620 nm were measured with a plate reader, to evaluate “cell membrane damage rate”. The results are plotted in FIG. 24.

[3] = system: IL-8 production of nerve cells C and nerve cells D; experiment: Cytotoxicity evaluation: inflammatory substance production (IL-8 ELISA); type: cell-based, human; settings: 100, 160, 220 micromoles; 20 hours; FIG. 25
Protocol: In the same manner as in the evaluation of the cell survival rate, a N9 culture medium (available from Elixirgen Scientific, LLC) to which zinc chloride was added was added, and the container was left to stand still overnight (for 20 hours) in a CO2 incubator at 37 degrees C.
In order to evaluate the influence of zinc chloride on inflammatory substance production, only the culture medium was recovered with a micropipette. IL-8 production was measured by ELISA method using a protein measurement kit (product name: HUMAN IL-8 ELISA READY-SET-GO! (registered trademark), available from Affymetrix), and absorbances at 450 nm, and as a reference value, at 570 nm were measured with a plate reader. The results are plotted in FIG. 25.

[4] = system: nerve cells C and nerve cells D; type: cell-based, human; settings: 100, 160, 220 micromoles; 20 hours; FIG. 23
Protocol: N9 culture media (available from Elixirgen Scientific, LLC) to which zinc chloride as a test substance at four concentration conditions of 0 micromoles, 100 micromoles, 160 micromoles, and 220 micromoles was added respectively were added in the evaluation container of Production example 2 in an amount of 100 microliters with a micropipette, and the container was left to stand still overnight (for 20 hours) in a CO2 incubator at 37 degrees C.
Next, in order to evaluate the influence of zinc chloride on the cell survival rate, a WST-1 reagent (product name: PREMIX WST-1 CELL PROLIFERATION ASSAY SYSTEM, available from Takara Bio Inc.) was added in an amount of 10 microliters per well (concave), and left to stand still for 1 hour in an CO2 incubator at 37 degrees C. to be allowed to undergo reaction. Subsequently, absorbances at 450 nm, and as a reference value, at 570 nm were measured with a plate reader (instrument name: CYTATION 5, available from Bio Tek Instruments Inc.), to evaluate “cell survival rate”. The results are plotted in FIG. 23.

[5] = drug concentration 0.1 micromoles
[6] = drug concentration 0.3 micromoles
[7] = drug concentration 1.0 micromoles
[8] = drug concentration 3.0 micromoles
[9] = drug concentration 10 micromoles

SMILES | Drug efficacy rate (living cells/dead cells) [1, 5] [%] | Living cells [1, 5] [cell] | Drug efficacy rate (living cells/dead cells) [1, 6] [%] | Dead cells [1, 6] [cell] | Living cells [1, 6] [cell] | Drug efficacy rate (living cells/dead cells) [1, 7] [%] | Living cells [1, 7] [cell] | Drug efficacy rate (living cells/dead cells) [1, 8] [%] | Dead cells [1, 8] [cell] | Living cells [1, 8] [cell] | Drug efficacy rate (living cells/dead cells) [1, 9] [%] | Dead cells [1, 9] [cell] | Living cells [1, 9] [cell] | cell membrane damage rate, nerve cells C compared with nerve cells D [2] | inflammatory substance production (IL-8), nerve cells C compared with nerve cells D [3] | cell survival rate, nerve cells C compared with nerve cells D [4]
CN[C@@H]1C[C@H]2O[C@@](C)([C@@H]1OC)n1c3ccccc3c3c4c(c5c6ccccc6n2c5c31)C(=O)NC4 [STAUROSPORINE] | 70 | 271 | 57 | 202 | 270 | 54 | 268 | 42 | 270 | 197 | 2 | 474 | 11 |  |  | 
[Cl-].[Cl-].[Zn+2] [zinc chloride] |  |  |  |  |  |  |  |  |  |  |  |  |  | almost the same toxic response tendency | almost the same toxic response tendency | almost the same toxic response tendency
